Legend:
S. cereviseae BY4742 [1] = assay: GFP destabilization/re-stabilization assay of TetR::AcGFP fusions in yeast liquid culture +/- atc; type: cell-based, Saccharomyces cereviseae; details: TetR::AcGFP fusion, galactose induced, 6 hrs growth, FIG. 3
Excerpt: The third mutation, 122D (Reichheld and Davidson 2006), is a constitutive mutation in the presence or absence of ligand. Both L17G and I22D lie in the DNA binding domain (DBD) whereas G96R is in alpha helix 6 within the ligand binding domain (LBD). To test the effect of these mutations for ligand gated stability a GFP destabilization/re-stabilization assay (FIG. 1) was created. To do this a fusion between the coding regions of TetR B (Wray et al. 1981) and AcGFP (Gurskaya et al. 2003) by PCR amplifying the TetR region from plasmid pVER7568 using primers REPS' and TetR::AcGFP Rev and the AcGFP coding region from plasmid pHD1010 with primers TetR::AcGFP For and AcGFP3′ (Table 2) was created. The PCR products were then combined and subjected to overlap extension PCR using primers REPS' and AcGFP3′. The resulting full length PCR fusion product was then cloned into the Galactose inducible yeast expression vector p415GAL (ATCC#87330) as an XbaI/HindIII fragment. […] 100 ul aliquots of resuspended cells were placed into clear bottom black 96-well plates and their fluorescence determined with a Typhoon Laser Image Scanner (GE: […]). […]

S. cereviseae BY4742 [2] = assay: GFP fluorescence of wt and L17G repressor::GFP fusions in yeast on agar +/- atc, ethametsulfuron or chlorsulfuron, incl. dose response; type: cell-based, Saccharomyces cereviseae; details: 5-10 uM atc, destabilized (L17G) fusion, FIG. 7
Excerpt: Next, we wanted to determine if a similar ligand enhanced protein accumulation effect would translate to our SU repressor backbones. […] Given the number of changes to the parent sequence and the 100% change in ligand preference it was not clear if they would behave in a similar manner. […] This was done by PCR amplifying the above coding regions with primers REPS' and EsR(L3-23) Rev, EsR(L15-20) Rev, or CsR(L4-20) Rev (Table 2), digesting each PCR product with StuI/BamHI and cloning each product into StuI/BamHI digested backbone fragments of pHD1184 and pHD2012 to give both wt and L17G mutant DNA binding domain combinations, respectively for most of the SuR's (schematic in FIG. 4). The resulting vectors (Table 4) were then transformed into S. cereviseae BY4742 as for pHD1184 (above). Each strain was then grown overnight in YPD medium and the cultures arrayed in 96-well format such that there were four repeats of every strain per plate. The array was then stamped onto 40 ml DOBA agar supplemented with 2% galactose, 0.025% casamino acids, and either 10 uM atc, ethametsulfuron, chlorsulfuron or no addition as the control. The plates were grown two days at 30° C. and imaged using a Typhoon laser scanning imager (GE) with excitation and emission set at 488 and 520 nm respectively. […]

TetR(L17G)
accumulation of GFP compared to wt TetR (S. cereviseae BY4742 [1]): significant negative impact | GFP response to ligand (dose response) (S. cereviseae BY4742 [2]): ~10 ×

TetR(G96R)
accumulation of GFP compared to wt TetR (S. cereviseae BY4742 [1]): significant negative impact

Reference: patent US20160326540A1, “Methods and Compositions Employing a Sulfonylurea-Dependent Stabilization Domain” (PIONEER HI-BRED INTERNATIONAL, INC., priority 2013, published 2016)
